Test systems include NCI-H23; SF-295; MCF7; HOP-92; OVCAR-4; HCT-116; COLO 205; MDA-N; NCI/ADR-RES; ACHN; MDA-MB-435; SK-MEL-5; SK-MEL-2; KM12; T47D; A498; Hs-578T; BT-549; SN12C; EKVX.
Holding throughout (assay): NCI-60 cell line screen, 48 h

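Tested at 5 concentrations; 48 h exposure; 96-well plates; endpoints linearly interpolated, else capped at highest concentration. GI50 = concentration required for 50% inhibition of growth.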 Activity calls are given as the source filed them. No stated cut-off is given here; in the data, active = GI50 up to about 1.1 µM and inactive = higher.

Turning to `CCN(CC)CCn1ncc2c(N)ncnc21`, the GI50 in the experiment with NCI-H23, in the experiment with SF-295, in the experiment on MCF7, in the experiment on HOP-92, in the experiment on OVCAR-4 and in the experiment with HCT-116 was > 100 µM (inactive) in each case. For the same molecule, the GI50 in the experiment on COLO 205, in the experiment with MDA-N, with NCI/ADR-RES, in the experiment with ACHN, in the experiment with MDA-MB-435 and with SK-MEL-5 was > 100 µM (inactive) in each case. Moreover, the GI50 in the experiment on SK-MEL-2, in the experiment with KM12, in the experiment with T47D, in the experiment on A498, in the experiment on Hs-578T and with BT-549 was > 100 µM (inactive) throughout. Besides, the GI50 in the experiment on SN12C and in the experiment on EKVX was > 100 µM (inactive) each time.

With `CNC1C(O)CC(OC2C/C=C(\C)C/C(C)=C/C=C/CCC(C)CNC(=O)/C=C/C=C/C2C)OC1C` (stereo not given), the GI50 with NCI-H23 was 0.863 µM (active); with SF-295 it was 0.25 µM (active); in the experiment on MCF7, 0.782 µM (active); in the experiment with HOP-92 it was 0.451 µM (active); in the experiment on OVCAR-4, 0.303 µM (active); with HCT-116, 0.278 µM (active). The GI50 in the experiment on COLO 205 was 0.202 µM (active); with MDA-N it was 0.34 µM (active); with NCI/ADR-RES it was 0.718 µM (active); in the experiment with ACHN it was 1.5 µM (inactive); with MDA-MB-435, 0.377 µM (active); in the experiment on SK-MEL-5, 0.811 µM (active). Further, the GI50 is 1.19 µM (inactive) in the experiment on SK-MEL-2; 0.432 µM (active) in the experiment on KM12; 0.783 µM (active) in the experiment with T47D; 1.72 µM (inactive) in the experiment on A498; 0.502 µM (active) in the experiment with Hs-578T; 1.25 µM (inactive) in the experiment with BT-549. Further, the GI50 is 0.82 µM (active) in the experiment on SN12C and 1.6 µM (inactive) in the experiment on EKVX.

With `N#CC(C#N)=C1SC(=N\c2ccccc2)/C(=N/c2ccccc2)N1c1ccccc1`, the GI50 in the experiment with NCI-H23 was 29.6 µM (inactive); with SF-295, 25.2 µM (inactive); in the experiment with MCF7 it was 13.4 µM (inactive); in the experiment on HOP-92, 6.82 µM (inactive); in the experiment with OVCAR-4 it was 13.2 µM (inactive); in the experiment with HCT-116, 14.4 µM (inactive). For the same molecule, the GI50 with COLO 205 was 10.1 µM (inactive); in the experiment with MDA-N, 12.4 µM (inactive); in the experiment on NCI/ADR-RES, 26.4 µM (inactive); in the experiment with ACHN, 20 µM (inactive); in the experiment on MDA-MB-435 it was 10.6 µM (inactive); in the experiment with SK-MEL-5 it was 14.3 µM (inactive). Moreover, the GI50 with SK-MEL-2 was 5.19 µM (inactive); in the experiment on KM12, > 38.5 µM (inactive); in the experiment on T47D, 5.38 µM (inactive); with A498, > 52.2 µM (inactive); with Hs-578T it was 25.3 µM (inactive); in the experiment on BT-549, 8.24 µM (inactive). Besides, the GI50 in the experiment with SN12C was 23.9 µM (inactive); with EKVX it was 36.6 µM (inactive).

In the case of `Cc1ccc2ccc(O)cc2c1`, the GI50 in the experiment on NCI-H23 is 37.8 µM (inactive); in the experiment with SF-295, 39.4 µM (inactive); in the experiment on MCF7 it was 31.2 µM (inactive); in the experiment on HOP-92, 24.9 µM (inactive); in the experiment on OVCAR-4, 20.9 µM (inactive); with HCT-116 it was 68.9 µM (inactive). The GI50 in the experiment with COLO 205 was > 100 µM (inactive); with MDA-N, 20.1 µM (inactive); in the experiment on NCI/ADR-RES it was 24.8 µM (inactive); with ACHN, 53.6 µM (inactive); with MDA-MB-435, 19 µM (inactive); in the experiment with SK-MEL-5, 57.4 µM (inactive). Also, the GI50 in the experiment with SK-MEL-2 was 38.1 µM (inactive); with KM12 it was 28.4 µM (inactive); with T47D it was 35.3 µM (inactive); with A498 it was 37.2 µM (inactive); with Hs-578T, 37.9 µM (inactive); in the experiment on BT-549, 26.7 µM (inactive). Besides, the GI50 in the experiment with SN12C was 94.6 µM (inactive); with EKVX it was 43.4 µM (inactive).

Turning to `N#Cc1c(-c2ccc(Cl)cc2Cl)nc2[nH]nc(S)n2c1=O`, the GI50 in the experiment with NCI-H23, in the experiment with SF-295, in the experiment on MCF7, in the experiment with HOP-92, with OVCAR-4 and in the experiment with HCT-116 was > 100 µM (inactive) in each case. For the same molecule, the GI50 in the experiment on COLO 205, in the experiment with MDA-N, in the experiment with NCI/ADR-RES, in the experiment with ACHN, in the experiment on MDA-MB-435 and in the experiment with SK-MEL-5 was > 100 µM (inactive) throughout. The GI50 in the experiment on SK-MEL-2, in the experiment on KM12, in the experiment with T47D, with A498, in the experiment on Hs-578T and with BT-549 was > 100 µM (inactive) each time. In addition, the GI50 in the experiment with SN12C and with EKVX was > 100 µM (inactive) throughout.

Consider `N#CCCN(CCC#N)c1ccc(/C=C2\SC(=S)NC2=O)cc1Br`, for which the GI50 in the experiment with NCI-H23 is > 100 µM (inactive); with SF-295, 27.9 µM (inactive); in the experiment with MCF7, > 100 µM (inactive); in the experiment with HOP-92, 50.5 µM (inactive); in the experiment with OVCAR-4 it was 85.1 µM (inactive); with HCT-116, > 100 µM (inactive). Further, the GI50 with COLO 205 was > 100 µM (inactive); in the experiment on MDA-N it was > 100 µM (inactive); in the experiment on NCI/ADR-RES, > 100 µM (inactive); in the experiment on ACHN, 67.9 µM (inactive); in the experiment with MDA-MB-435, > 100 µM (inactive); in the experiment with SK-MEL-5 it was > 100 µM (inactive). Also, the GI50 in the experiment with SK-MEL-2 is > 100 µM (inactive); with KM12, 66.7 µM (inactive); with T47D, > 100 µM (inactive); in the experiment on A498, 33.3 µM (inactive); in the experiment with Hs-578T it was 0.598 µM (active); in the experiment with BT-549, 37.3 µM (inactive). Also, the GI50 in the experiment with SN12C is > 100 µM (inactive); in the experiment with EKVX it was 46.9 µM (inactive).

In the case of `COC(=O)C1([C@@H]2C[C@@H](O)[C@]3(C)CC/C=C(\C)CCC[C@H](C)[C@H](O)[C@@H]2O3)CC1`, the GI50 in the experiment with NCI-H23 was 50.4 µM (inactive); with SF-295 it was 43.1 µM (inactive); in the experiment with MCF7 it was 41.9 µM (inactive); in the experiment on HOP-92, 96.4 µM (inactive); in the experiment on OVCAR-4, 45.9 µM (inactive); with HCT-116, 51.2 µM (inactive). The GI50 with COLO 205 was 57 µM (inactive); in the experiment on MDA-N it was 72.3 µM (inactive); in the experiment on NCI/ADR-RES it was 39.4 µM (inactive); in the experiment on ACHN it was 24.8 µM (inactive); in the experiment with MDA-MB-435 it was 77.6 µM (inactive); in the experiment on SK-MEL-5, 39.4 µM (inactive). Further, the GI50 was 73.3 µM (inactive) with SK-MEL-2; 60.4 µM (inactive) in the experiment with KM12; 46.6 µM (inactive) with T47D; > 100 µM (inactive) with A498; 63.2 µM (inactive) with Hs-578T; 53.7 µM (inactive) in the experiment on BT-549. Further, the GI50 was > 100 µM (inactive) with SN12C and 81.7 µM (inactive) in the experiment with EKVX.

`Clc1cc(-c2ccccc2)nc2ccccc12`: the GI50 with NCI-H23 is 51.6 µM (inactive); in the experiment on SF-295 it was 38.4 µM (inactive); with MCF7, 23.7 µM (inactive); in the experiment with HOP-92 it was 36.8 µM (inactive); in the experiment with OVCAR-4, 20.7 µM (inactive); in the experiment on HCT-116 it was 32.5 µM (inactive). Further, the GI50 is 19.5 µM (inactive) with COLO 205; 26 µM (inactive) in the experiment with MDA-N; 33.6 µM (inactive) with NCI/ADR-RES; 38.5 µM (inactive) with ACHN; 26.2 µM (inactive) with MDA-MB-435; 18.1 µM (inactive) in the experiment on SK-MEL-5. Moreover, the GI50 is 19.1 µM (inactive) with SK-MEL-2; 28.1 µM (inactive) in the experiment on KM12; 31.3 µM (inactive) in the experiment with T47D; 33 µM (inactive) in the experiment on A498; 30.1 µM (inactive) with Hs-578T; 18.8 µM (inactive) in the experiment on BT-549. The GI50 in the experiment on SN12C was 41.1 µM (inactive); in the experiment on EKVX, 31.9 µM (inactive).

With `NS(=O)(=O)c1nnc(NS(=O)(=O)c2ccccc2C(=O)O)s1`, the GI50 with NCI-H23, in the experiment with SF-295, in the experiment with MCF7, in the experiment with HOP-92, in the experiment with OVCAR-4 and in the experiment on HCT-116 was > 100 µM (inactive) in each case. Also, the GI50 in the experiment with COLO 205, in the experiment on MDA-N, in the experiment with NCI/ADR-RES, with ACHN, with MDA-MB-435 and in the experiment on SK-MEL-5 was > 100 µM (inactive) throughout. For the same molecule, the GI50 in the experiment on SK-MEL-2, in the experiment with KM12, with T47D, in the experiment with A498, in the experiment with Hs-578T and in the experiment with BT-549 was > 100 µM (inactive) in each case. Besides, the GI50 with SN12C and with EKVX was > 100 µM (inactive) in each case.

With `O=[N+]([O-])c1ccc(N/N=C/c2ccc(OCCCCCCCCCCCO)cc2)c([N+](=O)[O-])c1`, the GI50 is 14.4 µM (inactive) in the experiment with NCI-H23; 3.24 µM (inactive) in the experiment with SF-295; 6.05 µM (inactive) in the experiment with MCF7; 4.82 µM (inactive) in the experiment on HOP-92; 4.13 µM (inactive) in the experiment on OVCAR-4; 17.4 µM (inactive) in the experiment on HCT-116. Moreover, the GI50 with COLO 205 is 2.01 µM (inactive); with MDA-N it was 3.58 µM (inactive); in the experiment with NCI/ADR-RES, 2.73 µM (inactive); in the experiment on ACHN, 9.2 µM (inactive); in the experiment on MDA-MB-435 it was 2.48 µM (inactive); with SK-MEL-5, 1.77 µM (inactive). For the same molecule, the GI50 in the experiment on SK-MEL-2 was 10.3 µM (inactive); in the experiment on KM12 it was 2.75 µM (inactive); in the experiment on T47D, 5.22 µM (inactive); with A498, 36 µM (inactive); in the experiment with Hs-578T, 1.32 µM (inactive); with BT-549, 5.94 µM (inactive). For the same molecule, the GI50 in the experiment on SN12C was 3.24 µM (inactive); in the experiment on EKVX it was 17 µM (inactive).

(Values after ChEMBL document CHEMBL1201862, “PubChem BioAssay data set” (2004).)
